For data set [1], the target named is Tyrosine-protein kinase Lck (Homo sapiens, UniProt P06239). In words: Inhibition of Lck.
A short description of data set [2]: Aqueous solubility of the compound. Type of data set: physicochemical. To be noted: buffer.
The subject of data set [3] is Jurkat. The data set can be described thus: Inhibition of IL2 production in Jurkat E6-1 T cell line. Type of data set: functional, cell-based. To be noted: Homo sapiens.
Data set [4] is described as follows: Intrinsic clearance in rat hepatocytes after 1 hr at 1 uM. Type of data set: ADME, cell-based, Liver, Hepatocyte.
A short description of data set [5]: Cmax in orally dosed rat. The class given is ADME, organism-based. Also noted: route oral. Particulars: in vivo, po.
Data set [6] can be described thus: Oral bioavailability in rat. Type of data set: ADME, organism-based. To be noted: in vivo.
The test system of data set [7] is Rattus norvegicus. The data set can be described thus: Inhibition of adjuvant-induced hind paw swelling in Lewis rat at 25 mg/kg, po after 7 days relative to control. Particulars: 168 h. Type of data set: functional.

The results in this text go back to ChEMBL document CHEMBL1138945, “Development of N-4,6-pyrimidine-N-alkyl-N'-phenyl ureas as orally active inhibitors of lymphocyte specific tyrosine kinase” (Bioorg Med Chem Lett, 2006).

≈ marks a conversion by molar mass, not a printed value.

Sequence of Tyrosine-protein kinase Lck (P06239 whole entry): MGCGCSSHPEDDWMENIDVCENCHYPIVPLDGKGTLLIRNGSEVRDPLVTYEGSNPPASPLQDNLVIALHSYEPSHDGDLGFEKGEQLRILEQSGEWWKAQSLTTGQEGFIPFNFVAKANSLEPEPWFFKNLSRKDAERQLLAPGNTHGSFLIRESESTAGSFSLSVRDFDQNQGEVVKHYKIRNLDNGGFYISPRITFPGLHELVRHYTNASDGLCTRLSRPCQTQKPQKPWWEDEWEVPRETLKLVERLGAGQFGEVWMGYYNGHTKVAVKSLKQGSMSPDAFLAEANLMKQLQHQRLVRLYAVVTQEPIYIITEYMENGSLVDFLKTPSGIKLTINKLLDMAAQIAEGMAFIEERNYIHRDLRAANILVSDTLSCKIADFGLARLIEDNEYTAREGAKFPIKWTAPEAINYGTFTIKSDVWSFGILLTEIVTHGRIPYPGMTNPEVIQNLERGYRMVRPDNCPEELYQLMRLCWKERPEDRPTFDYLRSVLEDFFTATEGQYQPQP

As to `CCN(CC)CCOc1ccc(Nc2cc(N(CCCN(C)C)C(=O)Nc3c(Cl)cccc3Cl)ncn2)cc1`, the IC50 in data set [1] came out at 229 nM.

In the case of `CCN(CC)CCNc1cc(N(C)C(=O)Nc2c(Cl)cccc2Cl)ncn1`, the IC50 in data set [1] is more than 10000 nM.

Take `CN(C(=O)Nc1ccccc1Cl)c1cc(Nc2ccc(F)cc2)ncn1`: it took 1820 nM to reach half-maximal inhibition in data set [1] (IC50).

For `CCN(CC)CCOc1ccc(Nc2cc(N(C)C(=O)Nc3cc(NC(=O)c4cccc(C(F)(F)F)c4)ccc3C)ncn2)cc1`, the IC50 in data set [1] is 3 nM; in data set [3] it was less than 10 nM. Besides, the solubility in data set [2] stood at 3 µg/mL (≈ 4.72 µM).

Compound `CCN(CC)CCOc1ccc(Nc2cc(N(C)C(=O)Nc3cc(NC(=O)c4cc5ccccc5n4C)ccc3C)ncn2)cc1` displayed an IC50 in data set [1] of 149 nM.

In the case of `CN(C)CCCNc1cc(N(C)C(=O)Nc2c(Cl)cccc2Cl)ncn1`, the IC50 in data set [1] was 5990 nM.

In data set [1], `CN(C)CCCN(C(=O)Nc1c(Cl)cccc1Cl)c1cc(Nc2ccc(N3CCOCC3)cc2)ncn1` registered a concentration for half-maximal inhibition (IC50) of 155 nM.

`Cc1cccc(Cl)c1NC(=O)N(C)c1cc(Nc2ccc(N3CCOCC3)cc2)ncn1`: in data set [1], it took 190 nM to reach half-maximal inhibition (IC50).

On to `CN(C(=O)Nc1c(Cl)cccc1Cl)c1cc(NCCN2CCOCC2)ncn1`, for which the IC50 in data set [1] was more than 10000 nM.

As for `Cc1cccc(Cl)c1NC(=O)N(C)c1cc(Nc2ccc(N3CCN(C)CC3)cc2)ncn1`, the IC50 in data set [1] came to 9 nM; in data set [3], 749 nM. This compound returned a solubility in data set [2] of 2 µg/mL (≈ 4.29 µM).

`CNc1cc(N(CCCN(C)C)C(=O)Nc2c(Cl)cccc2Cl)ncn1` returned an IC50 in data set [1] of 2350 nM.

On to `CCN(CC)c1ccc(Nc2cc(N(Cc3ccccc3)C(=O)Nc3ccccc3Cl)ncn2)cc1`, for which the IC50 in data set [1] was more than 10000 nM.

`CCN(CC)CCOc1ccc(Nc2cc(N(C)C(=O)Nc3cc(C(=O)Nc4cccc(C(F)(F)F)c4)ccc3C)ncn2)cc1` registered an IC50 in data set [1] of 32 nM.

Regarding `CCN(CC)CCOc1ccc(N(C(=O)Nc2c(Cl)cccc2Cl)c2cc(NC)ncn2)cc1`, the IC50 in data set [1] was more than 10000 nM.

The compound `CCN(CC)c1ccc(Nc2cc(N(C)C(=O)Nc3ccccc3Cl)ncn2)cc1` showed an IC50 in data set [1] of 3130 nM.

`CCN(CC)c1ccc(Nc2cc(N(Cc3ccc(N(C)C)cc3)C(=O)Nc3ccccc3Cl)ncn2)cc1` registered an IC50 in data set [1] of more than 10000 nM.

Regarding `CN1CCN(c2ccc(Nc3cc(N(C)C(=O)Nc4c(Cl)cccc4Cl)ncn3)cc2)CC1`, half-maximal inhibition in data set [1] (IC50) was put at 6 nM.

In the case of `CCN(CC)CCOc1ccc(Nc2cc(N(C)C(=O)Nc3cc(OC)ccc3C)ncn2)cc1`, it took 2580 nM to reach half-maximal inhibition in data set [1] (IC50).

In turn, `CCN(CC)c1ccc(Nc2cc(N(CCCN(C)C)C(=O)Nc3ccccc3Cl)ncn2)cc1` yielded a half-maximal inhibitory concentration (IC50) in data set [1] of 4490 nM.

Take `CCN(CC)CCOc1ccc(Nc2cc(N(C)C(=O)Nc3cc(NC(=O)c4cc5ccccc5s4)ccc3C)ncn2)cc1`: half-maximal inhibition in data set [1] (IC50) required 52 nM.

Turning to `CCN(CC)CCOc1ccc(Nc2cc(N(C)C(=O)Nc3c(Cl)cccc3Cl)ncn2)cc1`, the IC50 was found to be 87 nM in data set [1] and 862 nM in data set [3]. The compound also displayed a solubility in data set [2] of 38 µg/mL (≈ 75.5 µM). The compound also registered a CLint scaled at 1 µM in data set [4] of 40 mL/min/kg. This compound showed a Cmax in data set [5] of 394 ng/mL. This compound showed a bioavailability in data set [6] of 66%. In addition, the inhibition in vivo at 25 mg/kg in data set [7] turned out to be 63%.

For the compound `CCN(CC)CCOc1ccc(Nc2cc(N(C)C(=O)Nc3cc(C(=O)Nc4cc(C(C)(C)C)on4)ccc3C)ncn2)cc1`, the IC50 was 4 nM in data set [1] and less than 10 nM in data set [3]. In data set [2], this compound came in with a solubility of 1 µg/mL (≈ 1.63 µM).

On to `CCN(CC)CCOc1ccc(Nc2cc(N(C)C(=O)Nc3ccccc3OC)ncn2)cc1`, for which, in data set [1], the IC50 is more than 10000 nM.

In data set [1], `CCN(CC)c1ccc(Nc2cc(N(CCCN(C)C)C(=O)Nc3c(C)cccc3Cl)ncn2)cc1` gave an IC50 of 971 nM.

Consider `CCN(CC)CCOc1ccc(Nc2cc(N(C)C(=O)Nc3c(C)cccc3Cl)ncn2)cc1`, for which the results for the IC50 in data set [1] and in data set [3] were 28 nM and 3100 nM, respectively. Besides, in data set [2], the solubility came to 34 µg/mL (≈ 70.4 µM). The same compound registered a CLint scaled at 1 µM in data set [4] of 25 mL/min/kg.

Turning to `CN1CCN(N(C(=O)Nc2c(Cl)cccc2Cl)c2cc(Nc3ccc(N4CCOCC4)cc3)ncn2)CC1`, the IC50 in data set [1] came to 230 nM.

`CN(C(=O)Nc1c(Cl)cccc1Cl)c1cc(NC2CCOCC2)ncn1` gave an IC50 in data set [1] of more than 10000 nM.

For `CN(C(=O)Nc1c(Cl)cccc1Cl)c1cc(Nc2ccc(F)cc2)ncn1`, the IC50 in data set [1] is 3860 nM.

As for `Cc1ccc(O)cc1NC(=O)N(C)c1cc(Nc2ccc(N3CCOCC3)cc2)ncn1`, in data set [1], the IC50 is 4 nM.

Take `CCN(CC)CCOc1ccc(Nc2cc(N(C)C(=O)Nc3cc(O)ccc3C)ncn2)cc1`: the IC50 in data set [1] was 3 nM; in data set [3] it was 64 nM. The same compound yielded a solubility in data set [2] of 41 µg/mL (≈ 88.3 µM). In data set [4], this compound returned a CLint scaled at 1 µM of 108 mL/min/kg. In data set [5], this compound yielded a Cmax of 3 ng/mL. Also, in data set [6], the bioavailability was 1%.

For `CN(C(=O)Nc1c(Cl)cccc1Cl)c1cc(Nc2ccc(N3CCOCC3)cc2)ncn1`, the IC50 is 301 nM in data set [1] and 2900 nM in data set [3]. This compound returned a solubility in data set [2] of 3 µg/mL (≈ 6.34 µM). Also, the CLint scaled at 1 µM in data set [4] is 48 mL/min/kg. Moreover, in data set [5], the concentration peaked (Cmax) at 9 ng/mL. Besides, the bioavailability in data set [6] came out at 0%.

In data set [1], `CN1CCN(c2ccc(Nc3cc(N(C)C(=O)Nc4ccccc4Cl)ncn3)cc2)CC1` came in with an IC50 of 708 nM.

With `Cc1cccc(Cl)c1NC(=O)N(Cc1ccccc1)c1cc(Nc2ccc(F)cc2)ncn1`, the concentration for half-maximal inhibition (IC50) in data set [1] is 1450 nM.

For `CN(C(=O)Nc1ccccc1Cl)c1cc(Nc2ccc(N3CCOCC3)cc2)ncn1`, the IC50 in data set [1] is 4290 nM.

`CCN(CC)CCOc1ccc(Nc2cc(N(C)C(=O)Nc3c(Cl)cccc3C(F)(F)F)ncn2)cc1` returned an IC50 in data set [1] of 96 nM.

`CCN(CC)CCOc1ccc(Nc2cc(N(C)C(=O)Nc3c(F)cccc3F)ncn2)cc1` showed an IC50 in data set [1] of 418 nM.

The compound `O=C(Nc1c(Cl)cccc1Cl)N(c1ccncc1)c1cc(Nc2ccc(N3CCOCC3)cc2)ncn1` yielded an IC50 in data set [1] of more than 10000 nM.
